According to patent publication US20100104625A1, “BIODEGRADABLE COMPOSITIONS AND MATERIALS” (CORNELL UNIVERSITY, priority 2007, published 2010):

Experiment: Sessile contact angle of water on lipid pellet surface
Format: physicochemical
Conditions: pellets fabricated from each lipid
Procedure: Particle characterization. Particle morphology and size were studied at low voltage (5 kV) using scanning electron microscopy imaging (LEICA 440) after coating with palladium. Surface charge measurements on samples suspended in 1:10 diluted PBS were carried out using a Malvern Zetasizer-Nano ZS (Malvern, UK). A PRECO Hydraulic press (Los Angles, Calif.) was used to make lipid pellets with approximate surface area of 25 mm^2. For contact angle measurements, a ramé-hart contact angle goniometer (100-FO) was used to measure the sessile contact angle of water on a lipid pellet surface. Unless otherwise stated, measurements were taken in triplicate.

Hydrophobicity by contact angle of water on lipid surfaces: least hydrophobic
SMILES: CCCCCCCC(=O)OCC(=O)COC(=O)CCCCCCC [C8]
